Here are results for six compounds from publication PMC4414146, “PACE4 inhibitors and their peptidomimetic analogs block prostate cancer tumor progression through quiescence induction, increased apoptosis and impaired neovascularisation” (Oncotarget, 2015).

Read-outs that look alike come from different tables or passages of the source. Where a SMILES comes first, the peptide text is derived from it. [ ]: non-standard residue; d: D form. The star is where a group is joined. NOTA = O=C(O)CN1CCN(CC(=O)O)CCN(CC(=O)*)CC1; NH(4-amidinobenzyl) = N=C(N)c1ccc(CN*)cc1

Data set [1] can be described thus: LNCaP cell-based peptide stability assay. Type of data set: in vitro ADME. The note with it: human, LNCaP cells, HPLC, read-out: T½ LNCaP cells (converted). How it is done:
(§1) LNCaP cell-based stability assays were performed in Poly-(L)lysine coated 96-wells plates seeded at a density of 1,500 cells/wells. 100 μg of peptides were added 24 hours after plating without media change. Media was collected and mixed with 5 μL of trifluororacetic acid 5% to stop peptide degradation. Ex vivo plasmatic stability assays were performed as previously described. Briefly, compounds (0.5 μg/μL) were incubated with CD1 mouse plasma from mixed-sex animals collected with heparin sodium (Novi, USA). Reaction was stop by addition of 150 μL guanidine HCl and 300 μL of acetonitrile and peptides were extracted by centrifugation. For both in vitro and ex vivo stability assays, peptide stability was assessed from reverse phase HPLC and percentage of remaining peptide was calculated from area under curve and normalized to time 0.

Details of data set [2]: method as in Kwiatkowska et al [22]. The note with it: ex vivo mouse plasma; ref Kwiatkowska et al [22]; cited from earlier work.
Data set [3] deals with DU145 prostate cancer cell line. As to conditions: MTT assay; ref Kwiatkowska et al [22]; cited from earlier work. In general terms: Tetrazolium assays rely on reduction of a dye to a coloured formazan, in cell work by metabolically active cells.
In data set [4] the test system is LNCaP prostate cancer cell line. The note with it: MTT assay; ref Kwiatkowska et al [22]; cited from earlier work.
The subject of data set [5] is LNCaP xenograft. Nature of the data set: LNCaP xenograft, intratumoral administration. In kind it is in vivo, Nu/Nu male mice. The note with it: intra-tumoral, 50 μg/tumor per 48 h; vehicle 400 ± 100%. How it is done:
For tumor implantation, trypsin-harvested LNCaP cell suspension was mixed with equal volume of matrigel (BD Biosciences, Bedford, MA) on ice and subcutaneously injected (200 μL) at 4 different sites (left/right hip and left/right shoulder) on Nu/Nu male mice (Charles River Laboratories, LaSalle, Canada) at density of 2 million cells/site. Tumors were periodically measured and the tumor volumes were calculated from the equation: Length•width^2•π/6. When tumors were fully formed and palpable, mice were divided into treatment groups. For intratumoral administration of the compound, 20 μL of peptides (2.5 μg/μL) or vehicle (5% Dimethyl sulfoxide in sterile saline) was administered directly into the tumor at interval of 48 hours. For intra-venous administration experiments, 100 μL of peptide solution (2 mg/kg) or vehicle (saline) was administered through tail vein at interval of 24 hours. […] Blood sampling (50–75 μL) from saphenous vein was performed weekly and plasma was stored at −80°C for Prostate-specific antigen (PSA) serum levels determination using a PSA EIA assay (ClinPro International, USA). Mice were housed under pathogen-free conditions and manipulations were performed in a biosafety cabinet. All experimental procedures were in accordance with the Canadian Council on Animal Care.

A short description of data set [6]: Ex vivo plasmatic stability assay. Type of data set: in vitro ADME. The note with it: both sexes, CD1; ex vivo mouse plasma; read-out: T½ plasma (converted). How it is done: as §1
The subject of data set [7] is LNCaP prostate cancer cell line. Type of data set: cell-based. As to conditions: 72 h. Here is the method: (§2) Cell lines were obtained from ATCC and maintained in RPMI-1640 5% FBS (DU145) and 10% FBS (LNCaP). For MTT proliferation assays, peptides were added 24 hours after seeding in 96-well plates as previously described and incubated 72 hours prior to addition of MTT reagent (Sigma-Aldrich, Canada) at final concentration of 1 mg/mL [21, 22]. Formazan salt was solubilized with 100 μL Isopropanol: HCl (24:1N) and metabolic activity was normalized relatively to vehicle-treated cells (Sterile bidistilled water). IC50 were determined using Prism 5.0 (GraphPad Software, USA).

For data set [8], the system named is DU145 prostate cancer cell line. Type of data set: cell-based. The note with it: 72 h. How it is done:
as §2

A short description of data set [9]: Pharmacokinetic assay, intravenous 2 mg/kg, LC-MS/MS. Type of data set: in vivo. As to conditions: mouse, plasma, CD1 mice; for AUC: read-out: AUC calculated; for half-life: read-out: Half-life (in vivo plasma); for Vd: read-out: Volume of distribution. How it is done: To determine pharmacokinetic profiles of peptides, a single dose of 2 mg/kg was administered into systemic circulation from tail vein of CD1 mice (n = 4 animal/peptide). Blood was micro sampled on individual mouse at time 2.5, 5, 10, 20, 30 and 60 minutes. Plasma was collected by centrifugation and proteins were cleared from plasma using acetonitrile precipitation and supernatant was filtered using 0.2 μm PVDF centrifugal device (Canadian Life Science, Canada). Sample were analysed at PhenoSwitch Bioscience (Sherbrooke, Canada) by LC-MS/MS on a TripleTOF 5600 mass spectrometer (ABSciex, USA) equipped with DuoSpray source. Further information on mass spectrometry analyses and parameters used are presented in supplementary material.

Data set [10] has as its system LNCaP xenograft. The data set is described as follows: LNCaP xenograft, systemic (iv) administration. Type of data set: in vivo, Nu/Nu male mice. The note with it: daily 2 mg/kg iv; similar in control group. Here is the method:
For tumor implantation, trypsin-harvested LNCaP cell suspension was mixed with equal volume of matrigel (BD Biosciences, Bedford, MA) on ice and subcutaneously injected (200 μL) at 4 different sites (left/right hip and left/right shoulder) on Nu/Nu male mice (Charles River Laboratories, LaSalle, Canada) at density of 2 million cells/site. Tumors were periodically measured and the tumor volumes were calculated from the equation: Length•width^2•π/6. When tumors were fully formed and palpable, mice were divided into treatment groups. For intratumoral administration of the compound, 20 μL of peptides (2.5 μg/μL) or vehicle (5% Dimethyl sulfoxide in sterile saline) was administered directly into the tumor at interval of 48 hours. For intra-venous administration experiments, 100 μL of peptide solution (2 mg/kg) or vehicle (saline) was administered through tail vein at interval of 24 hours. The total tumor volume per animal was normalized using the following formula: (total tumor volume/total tumor volume at day 27 × 100). Blood sampling (50–75 μL) from saphenous vein was performed weekly and plasma was stored at −80°C for Prostate-specific antigen (PSA) serum levels determination using a PSA EIA assay (ClinPro International, USA). Mice were housed under pathogen-free conditions and manipulations were performed in a biosafety cabinet. […]

The target in data set [11] is T1, human recombinant and soluble PACE4 (Homo sapiens, UniProt P29122).
T1 construct: made in house; host or cells: S2 insect cells (Drosophila Schneider 2)
T1 sequence (P29122 150-969): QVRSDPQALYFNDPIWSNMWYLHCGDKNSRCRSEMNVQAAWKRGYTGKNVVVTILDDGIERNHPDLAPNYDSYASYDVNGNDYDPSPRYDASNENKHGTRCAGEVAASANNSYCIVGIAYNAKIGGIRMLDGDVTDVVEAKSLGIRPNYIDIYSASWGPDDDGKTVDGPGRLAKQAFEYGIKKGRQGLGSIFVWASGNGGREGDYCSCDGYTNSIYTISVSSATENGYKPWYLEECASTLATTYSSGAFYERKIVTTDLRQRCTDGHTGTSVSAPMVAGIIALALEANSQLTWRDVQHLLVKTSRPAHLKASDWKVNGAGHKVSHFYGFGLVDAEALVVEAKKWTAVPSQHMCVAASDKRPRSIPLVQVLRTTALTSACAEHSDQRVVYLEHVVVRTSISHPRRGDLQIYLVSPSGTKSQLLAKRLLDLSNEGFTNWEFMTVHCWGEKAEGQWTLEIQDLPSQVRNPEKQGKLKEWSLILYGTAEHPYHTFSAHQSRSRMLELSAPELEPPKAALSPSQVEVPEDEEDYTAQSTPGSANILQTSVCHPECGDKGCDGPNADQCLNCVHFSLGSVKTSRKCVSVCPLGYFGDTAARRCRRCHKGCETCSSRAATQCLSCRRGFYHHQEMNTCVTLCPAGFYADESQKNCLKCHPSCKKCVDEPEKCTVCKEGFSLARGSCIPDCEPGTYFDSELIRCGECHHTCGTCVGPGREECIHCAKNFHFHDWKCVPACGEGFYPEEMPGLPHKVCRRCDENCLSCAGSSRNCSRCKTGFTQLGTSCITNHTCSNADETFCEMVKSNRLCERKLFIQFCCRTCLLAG
The note with it: ref Kwiatkowska et al [22]; cited from earlier work.

Data set [12] deals with T1, human recombinant and soluble PACE4. Nature of the data set: Enzymatic assay, inhibition constant toward PACE4. In kind it is biochemical. How it is done: Inhibition constants (Ki) were determined using human recombinant and soluble PACE4 and furin produced in S2 insect cells and purified as previously described. The enzymatic assays were performed as described.

For the compound `CC(=O)N[C@@H](CC(C)C)C(=O)N[C@@H](CC(C)C)C(=O)N[C@@H](CC(C)C)C(=O)N[C@@H](CC(C)C)C(=O)N[C@@H](CCCN=C(N)N)C(=O)N[C@H](C(=O)N[C@@H](CCCCN)C(=O)NCc1ccc(C(=N)N)cc1)C(C)C` [Ac-LLLLRVK-Amba] (Ac-LLLLRVK-{NH(4-amidinobenzyl)}), in data set [1], the half-life was greater than 72 h. Moreover, in data set [2], the T½ plasma is reported as 12 ± 2 h.

As for `CC(=O)N[C@@H](CC(C)C)C(=O)N[C@@H](CC(C)C)C(=O)N[C@@H](CC(C)C)C(=O)N[C@@H](CC(C)C)C(=O)N[C@@H](CCCNC(=N)N)C(=O)N[C@H](C(=O)N[C@@H](CCCCN)C(=O)NCc1ccc(C(=N)N)cc1)C(C)C` [Ac-LLLLRVK-Amba] (Ac-LLLLRVK-{NH(4-amidinobenzyl)}), the IC50 in data set [3] is 25 ± 10 µM; in data set [4] it was 40 ± 15 µM. The “mean tumoral volume at day 59 compared to day 25” value in data set [5] worked out at 100 ± 30%.

For the compound `CC(=O)N[C@H](CC(C)C)C(=O)N[C@@H](CC(C)C)C(=O)N[C@@H](CC(C)C)C(=O)N[C@@H](CC(C)C)C(=O)N[C@@H](CCCNC(=N)N)C(=O)N[C@H](C(=O)N[C@@H](CCCCN)C(=O)NCc1ccc(C(=N)N)cc1)C(C)C` [Ac-[DLeu]LLLRVK-Amba] (Ac-[dL]LLLRVK-{NH(4-amidinobenzyl)}), in data set [1], the half-life was greater than 72 h. In addition, the half-life at 0.5 μg/μL in [6] is 18 ± 3 h. In addition, inhibition in data set [7] was half-maximal at 40 ± 10 µM (IC50). The same compound showed an IC50 in data set [8] of 25 ± 10 µM. In addition, in data set [9], the clearance turned out to be 0.5 ± 0.1 mL/min, the AUC is 2170 ng·h/mL, the half-life amounted to 9 ± 3 min and the Vd was 0.006 ± 0.004 L. The compound also showed a body weight loss in [10] of 10%.

As for `CC(=O)N[C@H](CC(C)C)C(=O)N[C@@H](CC(C)C)C(=O)N[C@@H](CC(C)C)C(=O)N[C@@H](CC(C)C)C(=O)N[C@@H](CCCNC(=N)N)C(=O)N[C@H](C(=O)N[C@@H](CCCCN)C(=O)N[C@@H](CCCNC(=N)N)C(N)=O)C(C)C` [Ac-[DLeu]LLLRVKR-NH2], in data set [1], the half-life is 38 ± 8 h. Besides, in [2], the T½ plasma is reported as 8 ± 1 h. Moreover, the “Ki PACE4” value in data set [11] is 0.023 ± 0.001 µM.

For the compound `CC(C)C[C@H](NC(=O)[C@H](CC(C)C)NC(=O)[C@H](CC(C)C)NC(=O)[C@@H](CC(C)C)NC(=O)CN1CCN(CC(=O)O)CCN(CC(=O)O)CC1)C(=O)N[C@@H](CCCNC(=N)N)C(=O)N[C@H](C(=O)N[C@@H](CCCCN)C(=O)NCc1ccc(C(=N)N)cc1)C(C)C` [NOTA-[DLeu]LLLRVK-Amba] ({NOTA}-[dL]LLLRVK-{NH(4-amidinobenzyl)}), in data set [12], the “Ki PACE4” value was determined as 0.006 ± 0.002 µM.

Consider Ac-LLLLRVKR-NH2 [Ac-LLLLRVKR-NH2], for which the half-life in data set [1] is 21 ± 2 h. In addition, the T½ plasma in data set [2] is recorded as 5.1 ± 0.8 h. For the same compound, in [9], the clearance was 0.6 ± 0.1 mL/min, the AUC was 1670 ng·h/mL, the half-life is 8 ± 5 min and the Vd came out at 0.008 ± 0.007 L.

The term IC50 denotes the concentration at which inhibition is half-maximal. In general, clearance refers to the rate of elimination divided by the concentration. The low end stands for inefficient removal, the high end for efficient removal. Usually AUC stands for concentration integrated over time.
